Data taken from patent publication US20250109120A1, “INDOLINE DERIVATIVES FOR TREATMENT AND/OR PREVENTION OF TUMOR OR CELL PROLIFERATIVE AND FIBROSIS DISEASES” (NATIONAL TAIWAN UNIVERSITY, priority 2023, published 2025).

Test system: A549 cells
Assay: TGF-β1-induced EMT protein expression, western blot
Format: cell-based, human
Settings: test compounds 2 μM, senexin A 5 μM, pirfenidone 1 mM; TGF-β1 10 ng/mL
Method: FIGS. 4A-4B show the inhibition of epithelial-to-mesenchymal transition protein expressions by CDK8 inhibitors in human alveolar epithelial cells. […] Cell lysates were subjected to a Western blot analysis using the indicated antibodies. Results are shown as the mean t SEM from three independent experiments. *p<0.05, and ***p<0.001 compared to the control group; #p<0.05, ##p<0.01, and ###p<0.001 compared to the TGF-β1-treated group. […] Cell viabilities were determined by an MTT assay. Results are shown as the mean t SEM of three independent experiments.
Cells (106) were incubated for 10 min at 4° C. in lysis buffer (20 mM HEPES at pH 7.4, 2 mM EGTA, 50 mM β-glycerophosphate, 0.1% Triton X-100, 10% glycerol, 1 mM DTT, 1 μg/mL of leupeptin, 5 μg/mL of aprotinin, 1 mM phenylmethylsulfonyl fluoride, and 1 mM sodium orthovanadate), scraped off, incubated on ice for an additional 10 min, and centrifuged at 17,000 g for 30 min at 4° C. Protein samples (20 μg) were then electrophoresed on SDS-polyacrylamide gel electrophoresis (PAGE) gels and transferred to a nitrocellulose membrane, which was then blocked by incubation for 30 min at room temperature with 5% bovine serum albumin (BSA) in Tris-buffered saline with 0.1% Tween-20 (TBST). Immunoblotting was performed by overnight incubation at 4° C. with primary antibodies in TBST, followed by incubation for 1 h at room temperature with horseradish peroxidase (HRP)-conjugated secondary antibodies. Bound antibodies were measured using enhanced chemiluminescence (ECL) reagent (GE Healthcare, UK) and exposed to photographic film.

CNC(=O)c1cc(Oc2ccc(NS(=O)(=O)c3ccc4c(c3)C(=C(C)C)C(=O)N4)c(F)c2)ccn1 [Compound k, 4-(3-Fluoro-4-((2-oxo-3-(propan-2-ylidene)indoline)-5-sulfonamido)phenoxy)-N-methylpicolinamide]
TGF-β1-triggered EMT protein expressions: significant inhibition
